Measurements from patent publication US11566007B2, “Ras inhibitors” (Revolution Medicines, Inc., priority 2019, dated 2023).

Legend:
[1] = tested on: NCI-H358 cells (K-Ras G12C); assay: Potency assay: pERK in NCI-H358 cells; format: cell-based, human; conditions: Homo sapiens, NCI-H358; H358 KRAS G12C; read-out: pERK EC50
In short: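 4 h cpd, 37 °C; 10-pt 3-fold series, 10 mM DMSO top stock, duplicates. Readout pERK: AlphaLISA SureFire Ultra or In-Cell Western (IR-800CW secondary, DRAQ5 DNA stain). IC50, 4-PL fit vs log conc.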

NCI-H358 (K-Ras G12C) = assay: CellTiter-Glo cell viability assay, NCI-H358; format: cell-based, human; conditions: Homo sapiens, NCI-H358, 120 h, NCI-H358, 5-day treatment; class symbols; read-out: Additional H358 Cell Viability assay data (K-Ras G12C, IC50)
In short: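 Viability measured by CellTiter-Glo luminescence on day 5 following direct addition of compound to plated cells. Values expressed as percent of mean DMSO signal; curves fitted with a four-parameter logistic model.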

K-Ras G12C = K-Ras G12C (Homo sapiens (Human), UniProt P01116+P62937, G12C); assay: Ras-Raf (BRAF RBD) disruption / FRET / MOA assay, KRAS G12C; format: biochemical; conditions: KRAS G12C; Ras-Raf disruption/FRET/MOA assay; read-out: IC50* KRAS G12C FRET data
K-Ras G12C, sequence (P01116-2 other isoform, or with tags, fused parts or gaps G12C): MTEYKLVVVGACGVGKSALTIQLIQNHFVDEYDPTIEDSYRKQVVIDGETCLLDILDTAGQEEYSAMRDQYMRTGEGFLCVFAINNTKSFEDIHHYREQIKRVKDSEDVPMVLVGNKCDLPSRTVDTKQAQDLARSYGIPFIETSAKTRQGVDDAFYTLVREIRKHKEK
K-Ras G12C, sequence (P62937 whole entry): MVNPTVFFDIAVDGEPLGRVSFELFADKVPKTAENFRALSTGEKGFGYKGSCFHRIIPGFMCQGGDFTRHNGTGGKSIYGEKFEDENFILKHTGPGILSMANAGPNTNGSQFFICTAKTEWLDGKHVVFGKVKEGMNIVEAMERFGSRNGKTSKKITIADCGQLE
In short: (§1)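 Compound-driven ternary complex of nucleotide-loaded Ras with cyclophilin A, disrupting BRAF RBD binding. 10-point 3-fold dilution from 30 μM final, 3 h at 25° C, then anti-His Eu-W1024 (10 nM) and anti-GST allophycocyanin (50 nM) for 1.5 h. IC50 from TR-FRET ratio decrease versus DMSO.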

K-Ras G13C = K-Ras G13C (Homo sapiens (Human), UniProt P01116+P62937, G13C); assay: Ras-Raf (BRAF RBD) disruption / FRET / MOA assay, KRAS G13C; format: biochemical; conditions: KRAS G13C; Ras-Raf disruption/FRET/MOA assay; read-out: IC50* KRAS G13C FRET data
K-Ras G13C, sequence (P01116-2 other isoform, or with tags, fused parts or gaps G13C): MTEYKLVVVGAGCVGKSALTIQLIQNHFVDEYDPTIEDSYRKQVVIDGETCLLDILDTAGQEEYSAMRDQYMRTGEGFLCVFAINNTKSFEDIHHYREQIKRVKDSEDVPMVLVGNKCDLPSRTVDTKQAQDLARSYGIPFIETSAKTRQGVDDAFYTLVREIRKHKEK
K-Ras G13C, sequence (P62937 whole entry): as the sequence (P62937 whole entry) above
In short: as §1

KRAS G12S = KRAS G12S (Homo sapiens (Human), UniProt P01116+P62937, G12S); assay: Ras-Raf (BRAF RBD) disruption / FRET / MOA assay, KRAS G12S; format: biochemical; conditions: Ras-Raf disruption/FRET/MOA assay; class symbols; read-out: KRAS G12S FRET data IC50
KRAS G12S, sequence (P01116-2 other isoform, or with tags, fused parts or gaps G12S): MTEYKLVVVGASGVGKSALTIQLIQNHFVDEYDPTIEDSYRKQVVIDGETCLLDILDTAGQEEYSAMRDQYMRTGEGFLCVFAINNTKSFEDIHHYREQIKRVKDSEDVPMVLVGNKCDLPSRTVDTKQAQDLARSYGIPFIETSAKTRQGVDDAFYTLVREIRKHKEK
KRAS G12S, sequence (P62937 whole entry): as the sequence (P62937 whole entry) above
In short: as §1

KRAS G12D = KRAS G12D (Homo sapiens (Human), UniProt P01116+P62937, G12D); assay: Ras-Raf (BRAF RBD) disruption / FRET / MOA assay, KRAS G12D; format: biochemical; conditions: Ras-Raf disruption/FRET/MOA assay; class symbols; read-out: KRAS G12D FRET data IC50
KRAS G12D, sequence (P01116-2 other isoform, or with tags, fused parts or gaps G12D): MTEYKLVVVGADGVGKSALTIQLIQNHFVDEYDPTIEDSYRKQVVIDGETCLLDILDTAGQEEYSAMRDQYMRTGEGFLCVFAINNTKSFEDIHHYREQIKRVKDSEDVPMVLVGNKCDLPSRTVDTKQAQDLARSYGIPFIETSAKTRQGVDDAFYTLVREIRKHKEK
KRAS G12D, sequence (P62937 whole entry): as the sequence (P62937 whole entry) above
In short: as §1

KRAS G12V = KRAS G12V (Homo sapiens (Human), UniProt P01116+P62937, G12V); assay: Ras-Raf (BRAF RBD) disruption / FRET / MOA assay, KRAS G12V; format: biochemical; conditions: read-out: IC50* KRAS G12V FRET data
KRAS G12V, sequence (P01116-2 other isoform, or with tags, fused parts or gaps G12V): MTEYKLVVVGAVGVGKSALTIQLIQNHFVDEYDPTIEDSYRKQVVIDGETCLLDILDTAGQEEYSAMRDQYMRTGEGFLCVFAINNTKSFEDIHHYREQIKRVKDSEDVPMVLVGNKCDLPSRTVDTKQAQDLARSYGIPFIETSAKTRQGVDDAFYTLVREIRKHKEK
KRAS G12V, sequence (P62937 whole entry): as the sequence (P62937 whole entry) above
In short: as §1

KRAS WT = KRAS WT (Homo sapiens (Human), UniProt P01116+P62937); assay: Ras-Raf (BRAF RBD) disruption / FRET / MOA assay, KRAS WT; format: biochemical; conditions: read-out: IC50* KRAS WT FRET data
KRAS WT, sequence (P01116-2 other isoform, or with tags, fused parts or gaps): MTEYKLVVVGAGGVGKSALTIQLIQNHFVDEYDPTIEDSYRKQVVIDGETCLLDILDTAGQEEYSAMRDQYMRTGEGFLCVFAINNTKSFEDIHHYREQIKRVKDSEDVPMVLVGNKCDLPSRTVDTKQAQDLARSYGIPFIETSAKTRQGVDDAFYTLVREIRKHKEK
KRAS WT, sequence (P62937 whole entry): as the sequence (P62937 whole entry) above
In short: as §1

KRAS G13D = KRAS G13D (Homo sapiens (Human), UniProt P01116+P62937, G13D); assay: Ras-Raf (BRAF RBD) disruption / FRET / MOA assay, KRAS G13D; format: biochemical; conditions: read-out: IC50* KRAS G13D FRET data
KRAS G13D, sequence (P01116-2 other isoform, or with tags, fused parts or gaps G13D): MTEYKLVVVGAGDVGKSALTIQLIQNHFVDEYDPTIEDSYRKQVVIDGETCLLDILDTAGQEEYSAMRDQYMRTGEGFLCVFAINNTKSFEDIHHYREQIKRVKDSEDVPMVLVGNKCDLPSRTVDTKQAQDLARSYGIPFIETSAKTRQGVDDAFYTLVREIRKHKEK
KRAS G13D, sequence (P62937 whole entry): as the sequence (P62937 whole entry) above
In short: as §1

NRAS G12C = NRAS G12C (Homo sapiens (Human), UniProt P01111+P62937, G12C); assay: Ras-Raf (BRAF RBD) disruption / FRET / MOA assay, NRAS G12C; format: biochemical; conditions: read-out: IC50* NRAS G12C FRET data
NRAS G12C, sequence (P01111 whole entry G12C): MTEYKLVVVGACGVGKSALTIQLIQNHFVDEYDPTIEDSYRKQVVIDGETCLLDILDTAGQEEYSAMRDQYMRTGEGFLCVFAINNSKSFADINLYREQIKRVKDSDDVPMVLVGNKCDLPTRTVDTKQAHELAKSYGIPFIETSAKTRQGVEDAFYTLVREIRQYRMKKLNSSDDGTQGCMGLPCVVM
NRAS G12C, sequence (P62937 whole entry): as the sequence (P62937 whole entry) above
In short: as §1

Compound | EC50 [1] [nM] | IC50 (NCI-H358 (K-Ras G12C)) [nM] | IC50 (K-Ras G12C) [nM] | IC50 (K-Ras G13C) [nM] | IC50 (KRAS G12S) [nM] | IC50 (KRAS G12D) [nM] | IC50 (KRAS G12V) [nM] | IC50 (KRAS WT) [nM] | IC50 (KRAS G13D) [nM] | IC50 (NRAS G12C) [nM]
CC#CC(=O)N1CC[C@@]2(CCN([C@H](C(=O)N[C@H]3Cc4cccc(c4)-c4ccc5c(c4)c(c(-c4cccnc4[C@H](C)OC)n5CC)CC(C)(C)COC(=O)[C@@H]4CCCN(N4)C3=O)C(C)C)C2=O)C1 (atropisomer, axis not shown) [Example A426] | < 5000 | 10 to 100 | 100 to 1000 | 1000 to 10000 | 1000 to 10000 | > 10000 | 1000 to 10000 | 1000 to 10000 | > 10000 | 1000 to 10000
C=CC(=O)N1C[C@H](C)N(C(=O)N(C)[C@H](C(=O)N[C@H]2Cc3nc(cs3)-c3ccc4c(c3)c(c(-c3cccnc3[C@H](C)OC)n4CC)CC(C)(C)COC(=O)[C@@H]3CCCN(N3)C2=O)C(C)C)C[C@H]1C (atropisomer, axis not shown) [Example A430] | < 5000 | 10 to 100 | 100 to 1000 | 100 to 1000 | 100 to 1000 | 1000 to 10000 | 1000 to 10000 | 100 to 1000 | 1000 to 10000 | 100 to 1000
C=CC(=O)N1CC2(C1)CN(C(=O)N(C)[C@H](C(=O)N[C@H]1Cc3nc(cs3)-c3ccc4c(c3)c(c(-c3cccnc3[C@H](C)OC)n4CC)CC(C)(C)COC(=O)[C@@H]3CCCN(N3)C1=O)C(C)C)CCO2 (atropisomer, axis not shown) [Example A431] | < 5000 | 10 to 100 | 100 to 1000 | 100 to 1000 | 100 to 1000 | 1000 to 10000 | 100 to 1000 | 100 to 1000 | 1000 to 10000 | 100 to 1000
C=CC(=O)N1CCN(C(=O)N(C)[C@H](C(=O)N[C@H]2Cc3nc(cs3)-c3ccc4c(c3)c(c(-c3cccnc3[C@H](C)OC)n4CC)CC(C)(C)COC(=O)[C@@H]3CCCN(N3)C2=O)C(C)C)C[C@H]1C (atropisomer, axis not shown) [Example A432] | < 5000 | 10 to 100 | 10 to 100 | 10 to 100 | 100 to 1000 | 100 to 1000 | 100 to 1000 | 10 to 100 | 100 to 1000 | 10 to 100
C=CC(=O)N1CCN(C(=O)N(C)[C@H](C(=O)N[C@H]2Cc3nc(cs3)-c3ccc4c(c3)c(c(-c3cccnc3[C@H](C)OC)n4CC)CC(C)(C)COC(=O)[C@@H]3CCCN(N3)C2=O)C(C)C)C[C@@H]1C (atropisomer, axis not shown) [Example A433] | < 5000 | 10 to 100 | 10 to 100 | 10 to 100 | 10 to 100 | 100 to 1000 | 100 to 1000 | 10 to 100 | 100 to 1000 | 10 to 100
C=CC(=O)N1CC(N(C)C(=O)N(C)[C@H](C(=O)N[C@H]2Cc3nc(cs3)-c3ccc4c(c3)c(c(-c3cccnc3[C@H](C)OC)n4CC)CC(C)(C)COC(=O)[C@@H]3CCCN(N3)C2=O)C(C)C)C1 (atropisomer, axis not shown) [Example A435] | < 5000 | < 10 | 10 to 100 | 100 to 1000 | 100 to 1000 | 1000 to 10000 | 100 to 1000 | 100 to 1000 | 1000 to 10000 | < 10
C=CC(=O)N1CCCN(C(=O)N(C)[C@H](C(=O)N[C@H]2Cc3nc(cs3)-c3ccc4c(c3)c(c(-c3cccnc3[C@H](C)OC)n4CC)CC(C)(C)COC(=O)[C@@H]3CCCN(N3)C2=O)C(C)C)CC1 (atropisomer, axis not shown) [Example A436] | < 5000 | 10 to 100 | 10 to 100 | 100 to 1000 | 100 to 1000 | 100 to 1000 | 100 to 1000 | 10 to 100 | 100 to 1000 | 10 to 100
C=CC(=O)NCCN(C)C(=O)N(C)[C@H](C(=O)N[C@H]1Cc2nc(cs2)-c2ccc3c(c2)c(c(-c2cccnc2[C@H](C)OC)n3CC)CC(C)(C)COC(=O)[C@@H]2CCCN(N2)C1=O)C(C)C (atropisomer, axis not shown) [Example A438] | < 5000 | 10 to 100 | 10 to 100 | 10 to 100 | 100 to 1000 | 1000 to 10000 | 100 to 1000 | 100 to 1000 | 100 to 1000 | 10 to 100
CCn1c(-c2cccnc2[C@H](C)OC)c2c3cc(ccc31)-c1nc(cs1)C[C@H](NC(=O)[C@H](C1CCCC1)N(C)C(=O)[C@H]1CCN(C(=O)C#CC(C)(C)N3CCC3)C1)C(=O)N1CCC[C@H](N1)C(=O)OCC(C)(C)C2 (atropisomer, axis not shown) [Example A439] | < 5000 | < 10 | 10 to 100 | 100 to 1000 | 1000 to 10000 | > 10000 | 1000 to 10000 | 1000 to 10000 | 1000 to 10000 | 10 to 100
CCn1c(-c2cccnc2[C@H](C)OC)c2c3cc(ccc31)-c1nc(cs1)C[C@H](NC(=O)[C@H](C(C)C)N(C)C(=O)[C@H]1CCN(C(=O)C#CC(C)(C)N3CCC3)C1)C(=O)N1CCC[C@H](N1)C(=O)OCC(C)(C)C2 (atropisomer, axis not shown) [Example A440] | < 5000 | < 10 | 10 to 100 | 100 to 1000 | 1000 to 10000 | 1000 to 10000 | 1000 to 10000 | 1000 to 10000 | 1000 to 10000 | 10 to 100
C=CC(=O)N1CC[C@H](C(=O)N(C)[C@H](C(=O)N[C@H]2Cc3cc(C(F)F)cc(n3)-c3ccc4c(c3)c(c(-c3cccnc3[C@H](C)OC)n4CC)CC(C)(C)COC(=O)[C@@H]3CCCN(N3)C2=O)C(C)C)C1 (atropisomer, axis not shown) [Example A441] | < 5000 | 10 to 100 | 1000 to 10000 | 1000 to 10000 | > 10000 | > 10000 | > 10000 | > 10000 | > 10000 | 1000 to 10000
C=CC(=O)N1CC[C@](C#N)(C(=O)N(C)[C@H](C(=O)N[C@H]2Cc3cccc(c3)-c3ccc4c(c3)c(c(-c3cccnc3[C@H](C)OC)n4CC)CC(C)(C)COC(=O)[C@@H]3CCCN(N3)C2=O)C(C)C)C1 (atropisomer, axis not shown) [Example A443] | < 5000 | < 10 | 10 to 100 | 100 to 1000 | 100 to 1000 | 1000 to 10000 | 100 to 1000 | 1000 to 10000 | 1000 to 10000 | 10 to 100
C=CC(=O)N1CC[C@@](C#N)(C(=O)N(C)[C@H](C(=O)N[C@H]2Cc3cccc(c3)-c3ccc4c(c3)c(c(-c3cccnc3[C@H](C)OC)n4CC)CC(C)(C)COC(=O)[C@@H]3CCCN(N3)C2=O)C(C)C)C1 (atropisomer, axis not shown) [Example A444] | < 5000 | < 10 | 10 to 100 | 100 to 1000 | 1000 to 10000 | 1000 to 10000 | 100 to 1000 | 1000 to 10000 | 1000 to 10000 | 10 to 100
C=CC(=O)N1CC(OC(=O)N(C)[C@H](C(=O)N[C@H]2Cc3cccc(c3)-c3ccc4c(c3)c(c(-c3cccnc3[C@H](C)OC)n4CC)CC(C)(C)COC(=O)[C@@H]3CCCN(N3)C2=O)C(C)C)C1 (atropisomer, axis not shown) [Example A445] | < 5000 | < 10 | 10 to 100 | 100 to 1000 | 1000 to 10000 | > 10000 | 1000 to 10000 | 1000 to 10000 | 1000 to 10000 | 10 to 100
C=CC(=O)N1CC[C@H](C(=O)N(C)[C@H](C(=O)N[C@H]2Cc3cccc(c3)-c3ccc4c(c3)c(c(-c3cc5c(nc3[C@H](C)OC)CN(C)CC5)n4CC)CC(C)(C)COC(=O)[C@@H]3CCCN(N3)C2=O)C(C)C)C1 (atropisomer, axis not shown) [Example A446] | < 5000 | < 10 | 100 to 1000 | 1000 to 10000 | 1000 to 10000 | > 10000 | 1000 to 10000 | 1000 to 10000 | 1000 to 10000 | 100 to 1000
